This note sets out measurements from article PMC12040169 (PLOS Biology, 2025).

This series in a line: in vitro. The note with it: human, hela cells, % viability.

In the case of `NC(=O)C1CCN(C(=O)CCCSc2nc(-c3ccco3)cc(C(F)(F)F)n2)CC1` [CBK268844], the viability at 28.5 h, 10 µM worked out at 98.5%.
Then `CCOc1ccc2c(c1)N1C(=O)NC(C(F)(F)F)(C(F)(F)F)N=C1S2` [CBK025440], with 85.4%; and `CCCNCCc1ccc2c(c1)C(=O)N(Cc1ccc(OC)cc1)C2=O` [CBK011826C], with 87.3%; and `COCCCN(Cc1ccc(F)c(F)c1)Cc1ccccn1` [CBK282961], with 90.7%.
Then `CCN(Cc1ccccc1)C(=O)Nc1ccc(C)cc1` [CBK155248], with 99.1%.
Then `COCc1cccc(-c2nccnc2OCC(=O)OC)c1` [CBK106976], with 98.7%.
With `Cc1cccc(C(N)=O)c1O` [CBK012294], the viability at 28.5 h, 10 µM amounted to 112%.
With `CCCCSc1nc(N)cc(N2CCCN(C(=O)C3CCCO3)CC2)n1` (stereo not shown) [CBK307209], the viability at 28.5 h, 10 µM worked out at 86.8%.
Then `COc1cc(NC(=O)CN2C(=O)c3ccc([N+](=O)[O-])cc3C2=O)c(C(=O)O)cc1OC` [CBK265109], with 97.7%; and `Cc1c(CN2CCCCC2CCN2CCCC2=O)oc2ccccc12` (stereo not shown) [CBK282181], with 104%.
Turning to `O=C(NCc1nnc(-c2cccs2)o1)c1cccc(Cl)c1` [CBK284633], the viability at 28.5 h, 10 µM was 95.6%.
To `O=C(Oc1n[nH]c2ccccc12)c1ccc(Cl)cc1` [CBK009976] belongs 100%; to `Oc1cccc(-c2cc(CC3(NCc4cnc5ccccc5c4)COC3)no2)c1` [CBK289662], 107%.
Consider `COc1cccc(CNc2nccc(-n3nc(C)cc3C)n2)c1` [CBK288612], for which the viability at 28.5 h, 10 µM came to 96%.
`Cc1ccc(NC(=O)N(CCC#N)C2CCCCC2)cc1` [CBK156381]: the viability at 28.5 h, 10 µM is 106%.
Then `NC(=O)CN1CC2(CCN(CCc3c[nH]c4ccccc34)CC2)c2ccccc21` [CBK126784], with 93.3%; and `Cc1ccc(S(=O)(=O)NC(=O)N2CCCC2)cc1` [CBK001984], with 87.3%.
To `Cc1nn(-c2ccccn2)c(C)c1[C@@H]1C=C[C@@H](NC(=O)CCC(=O)O)C1` [CBK289170] belongs 81.9%; to `CCC1Oc2ccc(C(O)c3ccco3)cc2N(Cc2cccc(OC)c2)C1=O` (stereo not shown) [CBK286190], 89.7%; to `Cc1sc(C(N)=O)cc1[N+](=O)[O-]` [CBK066863], 106%.
For `S=C(NCCN1CCCCC1)NCc1ccccc1` [CBK263066], the viability at 28.5 h, 10 µM was found to be 112%.
To `O=S(=O)(c1ccccc1)N(CC(O)CN1CCCC1)c1cccc2ccccc12` (stereo not shown) [CBK264464C] belongs 93.9%.
For `CC1(C)CC(NC(=O)C2CCN(S(C)(=O)=O)CC2)c2ccccc2O1` (stereo not shown) [CBK304404], the viability at 28.5 h, 10 µM is 103%.
On to `Cc1cccc(C(=O)N2CCN(S(=O)(=O)c3sc(C(=O)O)c(C)c3C(=O)O)CC2)c1` [CBK297124], for which the viability at 28.5 h, 10 µM is 91.4%.
To `O=C(O)c1cccc(-c2cc(N3CCN(Cc4cccnc4)CC3)n3nccc3n2)c1` [CBK037080] belongs 106%; to `COc1cccc(Sc2cc(N3CCCC3)ncn2)c1` [CBK089533], 110%.
Consider `O=C(N[C@@H](Cc1ccccc1)C(=O)O)c1cccc2c1-c1ccccc1C2=O` [CBK286710], for which the viability at 28.5 h, 10 µM was determined as 92.1%.
To `O=c1[nH]ccn1CCNc1ccc(-c2cccc3cccnc23)cn1` [CBK037658] belongs 79.2%.
Then `Cn1c(CNc2ccc(C(=O)O)cc2)nc2ccccc21` [CBK262501], with 95.1%; and `CCC(Sc1nnc(-c2ccc([N+](=O)[O-])cc2)n1C)C(=O)Nc1ccc(Cl)cc1` (stereo not shown) [CBK265785], with 101%; and `Cc1ccc(S(=O)(=O)Nc2ccc(C(=O)O)cc2)cc1` [CBK034060], with 85.3%.
Then `COc1ccc(C2CNC(=O)C2)cc1OC1CCCC1` (stereo not shown) [CBK011603], with 86.5%; and `Cc1nn(C)cc1-c1cncn1Cc1cccc(OC(C)C)c1` [CBK281484], with 95.3%.
As for `Cc1cc(COc2ncccc2C(F)(F)F)no1` [CBK115783], the viability at 28.5 h, 10 µM worked out at 101%.
To `Cc1ccn2cc(-c3ccc4c(c3)CC(C)N4S(C)(=O)=O)nc2c1` (stereo not shown) [CBK285183] belongs 84.6%.
Then `O=C(Nc1cccc2cc[nH]c12)c1cc(F)cc(Cl)c1` [CBK160075], with 88.8%.
Take `Cc1csc(C(Cc2ccsc2)NCc2cccnc2)n1` (stereo not shown) [CBK285020]: the viability at 28.5 h, 10 µM came to 96.6%.
Turning to `N#Cc1ccccc1CSc1nnc(Cc2cccc3ccccc23)n1-c1ccccc1` [CBK266633], the viability at 28.5 h, 10 µM was 89.7%.
As to `CC(C)Nc1cc(SCc2ccc(F)cc2)ncn1` [CBK107158], the viability at 28.5 h, 10 µM was found to be 93.9%.
With `CCn1cc(CN2CCCN(C(=O)c3cc(Cl)c[nH]3)CC2)cn1` [CBK306153], the viability at 28.5 h, 10 µM is 90.6%.
With `Cn1c(S)nnc1-c1ccccc1O` [CBK014577], the viability at 28.5 h, 10 µM is 111%.
To `O=S(=O)(c1ccccc1)N1CCN(c2cnccn2)CC1` [CBK287839] belongs 88.9%; to `CCCC(=O)N1CCC[C@H]1Cn1nc(-c2ccc(F)cc2)ccc1=O` [CBK284288], 99.5%; to `COC(=O)CCN(Cc1nnc(C2CC2)o1)C(C)C` [CBK304470], 84.6%.
To `Cc1nn(C)c(N2CCNCC2)c1NC(=O)C1=CC(=O)CC(C)(C)O1` [CBK050362T] belongs 99.9%; to `C#CCNC(=O)CC[C@H]1CNC(=O)[C@@H]2[C@@H](CCN2Cc2ccc(C)cc2)N1C` [CBK289036], 101%; to `CCN(CC(=O)O)S(=O)(=O)c1cc(C)ccc1OC` [CBK268694], 98.7%.
For `c1ccc(N2CCN(c3nc4cc5c(cc4s3)OCCO5)CC2)cc1` [CBK287499], the viability at 28.5 h, 10 µM was determined as 93.6%.
With `Clc1ccc(-c2nn3c4cc(N5CCNCC5)ccc4nc3c3ccccc23)cc1` [CBK268319], the viability at 28.5 h, 10 µM stood at 102%.
Then `COc1ccc2nc(NC(=O)c3cnc(-c4ccc(Cl)cc4)c(-c4cccnc4)c3)sc2c1` [CBK037576], with 105%.
On to `c1ccc(CN2CCN(Cc3c[nH]c(-c4ccccc4)n3)CC2)cc1` [CBK074775], for which the viability at 28.5 h, 10 µM was 84.6%.
To `C/C(=N\NC(=O)c1nc(-c2ccccc2)cc(-c2ccccc2)n1)c1cccnc1` [CBK262827] belongs 90.2%; to `Cc1ccc(Oc2ccc(CNC(=O)c3sc4nc[nH]c(=O)c4c3C)cc2)cc1` [CBK285857], 91.3%.
To `CCCn1ncc(C(=O)NC(C)c2c(C)nn(CC)c2C)c1C` (stereo not shown) [CBK281532] belongs 85.5%; to `C#CCOc1ccc(/C=C2/SC(=S)N(CCC(=O)O)C2=O)cc1` [CBK265667], 94.1%.
Then `Cc1cn([C@H]2C[C@@H](O)[C@@H](CI)O2)c(=O)[nH]c1=O` [CBK201197], with 96.9%; and `CSc1[nH]nc(N)c1-c1ccc([N+](=O)[O-])cc1` [CBK016751], with 88%; and `O=C(c1ccc2[nH]nnc2c1)N1CCN(S(=O)(=O)Cc2ccccc2)CC1` [CBK295346], with 79.3%.

The term viability denotes a read-out of living cells in per cent, often relative to untreated cells.
